For series [1] the following is noted: Rat Wistar-Han; Dose 0.3 mg/kg PO: 3 mg/kg.
Series [2] in a line: in vivo. The conditions noted are these: Wistar-Han, rat.
The nature of series [3]: in vivo. To be noted: C57BL/6, mouse.
For series [4] the following is noted: Mouse C57BL/6; Dose IV: 1 mg/kg PO: 10 mg/kg.

From US9452998B2, “Protein kinase C inhibitors and methods of their use” (NOVARTIS AG, priority 2014, dated 2016) come the findings set out here.

What is called AUC is the area under the concentration-time curve, a measure of exposure. What is called Cmax is the peak of the concentration-time curve. By Tmax is commonly meant the time at which the peak concentration occurs. Usually half-life stands for the time needed for the level to fall by half in the phase considered. A lower half-life goes with rapid decline. Broadly, the Vd is the apparent volume that relates the amount in the body to the concentration in plasma or blood. A higher Vd goes with wide distribution into tissue. As a reminder, the clearance is the rate of elimination divided by the concentration. Consider `Nc1ncc(-c2ncccc2OC(F)(F)F)nc1C(=O)Nc1ncccc1N1CCC(N)CC1` [Example 2, 3-amino-N-(3-(4-aminopiperidin-1-yl)pyridin-2-yl)-6-(3-(trifluoromethoxy)pyridin-2-yl)pyrazine-2-carboxamide], for which, in series [1], the “Vss” value was 1.1 L/kg. This molecule returned an AUC in series [2] (iv, 0.3 mg/kg) of 0.38 µM·h. Further, in series [2] (po, 3 mg/kg), the AUC was found to be 2.77 µM·h, the peak level (Cmax) was 756 nM and the Tmax was 90 min. In series [3], this molecule showed a half-life of 30 min. In addition, in series [3] (intravenous, 1 mg/kg), the Vd was 0.4 L/kg and the clearance turned out to be 14 mL/min/kg. Further, in series [3] (po, 10 mg/kg), the highest level (Cmax) was 946 nM and the Tmax worked out at 18 min. Besides, the “Oral BA (% F)” value in series [4] is recorded as 6 % F.
